The numbers were not newly measured in patent publication US4127531A, “Novel hexapeptides, intermediates therefor, and compositions and methods employing said hexapeptides” (priority 1977, dated 1978), which cites them from elsewhere.

Data set [1] concerns partially purified brain opiate receptor sites.
The test system of the next data set is rat. The note with it: injected directly into the brain of the rat.

On to “H-Tyr-Gly-Gly-Phe-Met-OH [methionine enkephalin]”, for which, in data set [1], the “binding to partially purified brain opiate receptor sites” value is reported as “binds stereo-specifically”. Further, in the data set with rat, the analgesic activity entry is reported as “only weak analgesic agent of short duration”.
